Legend:
[1] = test system: E. multilocularis metacestode vesicles; test: Phosphoglucose isomerase (PGI) release assay (damage-marker release) on metacestode vesicles; assay type: cell-based, Echinococcus multilocularis; details: 10 μM; for PGI d5 (relative PGI release): 5 days; for PGI d12 (relative PGI release): 12 days
[2] = test system: E. multilocularis metacestode vesicles; test: Metacestode vesicle viability assay (ATP, CellTiter-Glo); assay type: cell-based, Echinococcus multilocularis
Description: Viability was assessed after 12 days using the same metacestode vesicles as for the PGI release assay. Triton X-100 was added to each well to a final concentration of 0.1 %. Subsequently the metacestode vesicles were broken mechanically and 50 μL of the supernatant was mixed with 50 μL of CellTiter-Glo® buffer (Promega, Dübendorf, Switzerland). Measurements were performed on a HIDEX Sense microplate reader.

[3] = overview screen, singlets, relative to 0.1 % Triton X-100, DMSO subtracted
[4] = overview screen, 10 μM, singlets, 12 days, relative to DMSO control
[5] = confirmation screen, triplicates, mean
[6] = confirmation screen, 10 μM, triplicates, mean, 12 days

SMILES	PGI d5 (relative PGI release) [1, 3]	PGI d12 (relative PGI release) [1, 3]	Viability d12 (relative viability) [2, 4]	PGI d5 (relative PGI release) [1, 5]	PGI d12 (relative PGI release) [1, 5]	Viability d12 (relative viability) [2, 6]	Viability d12 (relative viability) ([2]; 10 µM)
CCc1cc(O)c(Oc2cccnc2N)cc1F [MMV1580854]	-1.596%	-13.7258%	45.6729%				
Cc1ccc(N2CCC(CCOc3ccc(S(C)(=O)=O)cc3)CC2)nn1 [MMV1634394]	0.369%	-19.1494%	249.705%				
Cn1cc(NC(=O)c2cc(NC(=O)c3ccc(/C=C/c4cnc5ccccc5c4)cc3)cn2C)cc1C(=O)NCCN1CCOCC1 [MMV1634391]	-0.2305%	21.1965%	70.2948%				
Nc1nc(NC2Cc3ccc(F)cc3C2)nc(N2CCCCC2)n1 (stereo not drawn) [MMV1580839]	-3.67%	-6.152%	110.365%				
CCOCc1nc2c(N)nc3ccccc3c2n1CC(C)(C)O [MMV690547]	0.01909%	53.3537%	9.628%	0.18%	0.96%	159.08%	
O=C(NC1CCCc2c1[nH]c1ccc(Cl)cc21)c1ccccn1 (stereo not drawn) [MMV690621]	0.1463%	-17.1395%					144.507%
CCc1cc(CCCOc2c(C)cc(-c3noc(C(F)(F)F)n3)cc2C)on1 [MMV1634556]	0.6182%	-18.063%	121.169%				
CCNC(=O)Nc1cc2c(-c3ccnc(C)c3)ccc(CNC(=O)OC)c2cn1 [MMV1634390]	1.116%	-26.1278%	29.4745%				
O=C1C=C(c2ccccc2)S(=O)(=O)c2ccccc21 [MMV1006203]	0.2239%	0.7153%	120.957%				
O=C(c1cc(O)nc2ccccc12)N1CCN(c2ccccc2)CC1 [MMV596723]	0.1357%	-19.4413%	136.964%				
O=C(CCc1ccc2c(c1)OCO2)NCc1ccc(-c2ccccc2F)cc1 [MMV1782110]	-0.8152%	-13.3688%	100.363%				
CC(=O)O[C@H]1C[C@@]2(C)[C@@H](C[C@@H](O)[C@H]3[C@@]4(C)CC[C@@H](O)[C@@H](C)[C@@H]4CC[C@@]32C)/C1=C(\CCC=C(C)C)C(=O)O [MMV1578575]	2.315%	-12.4921%					144.199%
O=C(O)c1ccc(-n2nc(-c3ccccc3O)nc2-c2ccccc2O)cc1 [MMV640014]	-1.416%	-24.5374%	145.619%				
O=c1cc(NCCCN[C@@H]2CCOc3c(Br)cc(Br)cc32)[nH]c2ccsc12 [MMV1578884]	13.7393%	54.0946%	55.812%				
O=C1NC(=S)N/C1=C\c1cc(Br)cc(Br)c1O [MMV1578569]	1.516%	-5.575%	64.4597%				
Oc1cc(-c2cccc3ccccc23)[nH]n1 [MMV422940]	-1.4338%	-25.9471%	50.1817%				
O=C(Nc1ccc(F)cc1)c1nn(-c2ccccc2)c(=O)cc1Cl [MMV1578555]	4.414%	31.7823%	71.8821%				
Clc1cc(Cl)c2c(c1)CCc1ccccc1C2n1ccnc1 (stereo not drawn) [MMV1634492]	-1.087%	-25.0724%	206.655%				
C[C@H](NC(CC(=O)c1ccccc1C(F)(F)F)C(=O)O)c1ccccc1 (stereo partly drawn) [MMV1579778]	-3.315%	-4.896%	114.059%				
CN1CCN(c2ccc3[nH]c(-c4ccc5[nH]c(-c6ccc(O)cc6)nc5c4)nc3c2)CC1 [MMV020752]	-2.507%	7.527%					69.6365%
Oc1c(C(Nc2ccccn2)c2ccccc2)ccc2cccnc12 (stereo not drawn) [MMV565773]	-0.6323%	-6.242%	113.31%				
COc1cc(C(C)(C)CCCC(C)C)cc(OC)c1OC [MMV1782102]	0.2099%	-19.1561%	58.4954%				

SMILES	PGI d5 (relative PGI release) [1, 3]	PGI d12 (relative PGI release) [1, 3]	Viability d12 (relative viability) [2, 4]	PGI d5 (relative PGI release) [1, 5]	PGI d12 (relative PGI release) [1, 5]	Viability d12 (relative viability) [2, 6]	Viability d12 (relative viability) ([2]; 10 µM)
CCN(CC)S(=O)(=O)c1ccc(Cl)c(C(=O)Nc2sc3c(c2C#N)CCCC3)c1 [MMV1634384]	0.5897%	3.142%	106.793%				
C=C(C)[C@@H]1CC[C@]2(C(=O)O)CC[C@]3(C)[C@H](CC[C@@H]4[C@@]5(C)CC[C@H](O)C(C)(C)[C@@H]5CC[C@]43C)[C@@H]12 [MMV638198]	-0.508%	-0.6563%	121.139%				
COc1ccc2nc(-c3ccccc3)cc(O)c2c1 [MMV011565]	5.903%	49.0323%	19.5448%	0.13%	-0.59%	78.39%	
Oc1c(C(Nc2nc3ccccc3s2)c2ccc(OC(F)F)cc2)ccc2cccnc12 (stereo not drawn) [MMV019724]	0.06264%	0.4013%	220.792%				
COc1ccc(C[C@@H](C)[C@@H](C)Cc2ccc(OC)c(OC)c2)cc1OC [MMV1581036]	0.565%	2.335%	132.486%				
CCc1oc2ccccc2c1C(=O)c1ccc(O)cc1 [MMV1578558]	-2.405%	11.8922%	72.3877%				
O=C(O)C(Cc1c[nH]c2ccccc12)N1C(=O)c2ccccc2C1=O (stereo not drawn) [MMV452821]	1.873%	0.986%	132.36%				
CCc1nc(N)nc(N)c1C#CCc1ccccc1 [MMV1581549]	-0.3014%	-5.576%	82.8379%				
CC1CN(c2ncnc3c2c(-c2ccccc2)cn3-c2ccc(F)cc2)CC(C)O1 (stereo not drawn) [MMV093250]	0.6968%	49.8105%	6.513%	0.08%	-0.45%	29.29%	
NC1C2CC3CC(C2)CC1C3 (stereo not drawn) [MMV180402]	-0.5217%	-14.4779%	111.504%				
O=C(NC(=O)N1CCCc2ccccc21)c1ccc(Cl)cc1Cl [MMV1782218]	-2.44%	-25.0073%	60.7859%				
Clc1ccc(Cn2c(CN3CCCC3)nc3ccccc32)cc1 [MMV002015]	-0.9034%	-18.1648%					85.4319%
COc1ccc(NC(=O)CC2Sc3ncnn3C2=O)cc1 (stereo not drawn) [MMV1483032]	0.1451%	-11.504%	68.4676%				
O=C(NCc1ccc(F)cc1)c1c(O)c2ncccc2[nH]c1=O [MMV1782097]	0.7945%	-0.6563%	171.617%				
CCc1cc(Cc2cnc(N)nc2N)cc2c1N(C)CCC2C (stereo not drawn) [MMV1582490]	9.437%	80.495%	27.4864%	0.0536%	-0.39%	117.48%	
Nc1cnn(C2OC(CO)C(O)C2O)c(=O)n1 (stereo not drawn) [MMV1580495]	0.6182%	10.061%	84.6299%				
COc1ccc(COc2cc3oc(=O)c4cc(C(C)O)ccc4c3cc2OC)cc1 (stereo not drawn) [MMV1580799]	-0.002121%	-19.4753%	164.074%				
Cc1nc(N(C)C(=O)Cc2ccc(-c3ccccn3)cc2)sc1S(N)(=O)=O [MMV1580486]	-0.111%	0.7043%	136.799%				
CCOC(=O)Nc1cc(NC(C)CC(C)CN(CC)CC)c2nc(-c3ccccc3)c(-c3ccccc3)nc2n1 (stereo not drawn) [MMV1633967]	-2.798%	-20.9085%	104.121%				
Cc1cc(C2CCCCC2)n(O)c(=O)c1 [MMV002731]	-0.5492%	-23.4097%					50.1817%
CC(C)Oc1ccc(-c2nc(-c3cccc4c3CC[C@@H]4NCCO)no2)cc1C#N [MMV1580492]	-0.3732%	-18.7012%	55.483%				
